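Where inhibition never reached the appropriate level, the endpoint shown equals the highest concentration tested. Otherwise, values were interpolated linearly from a five-concentration, 48-hour dose response in 96-well plates. At the TGI there is no net growth.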
Assays:
Assay in all cases: DTP human tumour cell line panel, 48 h
RXF-631 renal = test system: RXF-631 renal
786-0 renal = test system: 786-0 renal
MALME-3M melanoma = test system: MALME-3M melanoma
KM12 colon = test system: KM12 colon
OVCAR-8 ovarian = test system: OVCAR-8 ovarian
U251 CNS = test system: U251 CNS
NCI-H226 lung = test system: NCI-H226 lung
HOP-92 NSCLC = test system: HOP-92 NSCLC
UO-31 renal = test system: UO-31 renal
RXF 393 renal = test system: RXF 393 renal
SK-MEL-28 melanoma = test system: SK-MEL-28 melanoma
IGROV1 ovarian = test system: IGROV1 ovarian
A549 NSCLC = test system: A549 NSCLC
MOLT-4 leukemia = test system: MOLT-4 leukemia
NCI-H522 lung = test system: NCI-H522 lung
XF 498 CNS = test system: XF 498 CNS
M19-MEL melanoma = test system: M19-MEL melanoma
CCRF-CEM leukemia = test system: CCRF-CEM leukemia
SNB-78 CNS = test system: SNB-78 CNS
DMS 114 small cell lung = test system: DMS 114 small cell lung
HL-60(TB) leukemia = test system: HL-60(TB) leukemia
UACC-257 melanoma = test system: UACC-257 melanoma
HCT-116 colon = test system: HCT-116 colon
CAKI-1 renal = test system: CAKI-1 renal
SR leukemia = test system: SR leukemia
OVCAR-5 ovarian = test system: OVCAR-5 ovarian
SK-MEL-2 melanoma = test system: SK-MEL-2 melanoma
LXFL 529 NSCLC = test system: LXFL 529 NSCLC
A498 renal = test system: A498 renal
OVCAR-4 ovarian = test system: OVCAR-4 ovarian
K-562 leukemia = test system: K-562 leukemia
HOP-62 NSCLC = test system: HOP-62 NSCLC
DMS 273 small cell lung = test system: DMS 273 small cell lung
M14 melanoma = test system: M14 melanoma
HCT-15 colon = test system: HCT-15 colon
SW-620 colon = test system: SW-620 colon
SF-539 CNS = test system: SF-539 CNS
SF-295 CNS = test system: SF-295 CNS
KM20L2 colon = test system: KM20L2 colon
RPMI-8226 leukemia = test system: RPMI-8226 leukemia
HCC-2998 colon = test system: HCC-2998 colon
UACC-62 melanoma = test system: UACC-62 melanoma
NCI-H460 lung = test system: NCI-H460 lung
SNB-75 CNS = test system: SNB-75 CNS
HOP-18 NSCLC = test system: HOP-18 NSCLC
OVCAR-3 ovarian = test system: OVCAR-3 ovarian
SNB-19 CNS = test system: SNB-19 CNS
SN12C renal = test system: SN12C renal
EKVX NSCLC = test system: EKVX NSCLC
DLD-1 colon = test system: DLD-1 colon
COLO 205 colon = test system: COLO 205 colon
HT29 colon = test system: HT29 colon
NCI-H23 lung = test system: NCI-H23 lung
ACHN renal = test system: ACHN renal
SK-OV-3 ovarian = test system: SK-OV-3 ovarian
SK-MEL-5 melanoma = test system: SK-MEL-5 melanoma
TK-10 renal = test system: TK-10 renal
LOX IMVI melanoma = test system: LOX IMVI melanoma
SF-268 CNS = test system: SF-268 CNS

c1ccc(N2CCN(CCCN3CCc4c([nH]c5ccccc45)C3c3cccnc3)CC2)cc1 (stereo unspecified)
TGI (RXF-631 renal): 98.2 µM | TGI (786-0 renal): > 100 µM | TGI (MALME-3M melanoma): > 77.3 µM | TGI (KM12 colon): > 100 µM | TGI (OVCAR-8 ovarian): > 100 µM | TGI (U251 CNS): > 31.6 µM | TGI (NCI-H226 lung): > 100 µM | TGI (HOP-92 NSCLC): > 100 µM | TGI (UO-31 renal): > 100 µM | TGI (RXF 393 renal): > 100 µM | TGI (SK-MEL-28 melanoma): > 100 µM | TGI (IGROV1 ovarian): > 100 µM | TGI (A549 NSCLC): > 100 µM | TGI (MOLT-4 leukemia): > 100 µM | TGI (NCI-H522 lung): > 100 µM | TGI (XF 498 CNS): 44.6 µM | TGI (M19-MEL melanoma): > 100 µM | TGI (CCRF-CEM leukemia): > 100 µM | TGI (SNB-78 CNS): > 100 µM | TGI (DMS 114 small cell lung): > 100 µM | TGI (HL-60(TB) leukemia): > 58.3 µM | TGI (UACC-257 melanoma): > 79.9 µM | TGI (HCT-116 colon): > 100 µM | TGI (CAKI-1 renal): > 100 µM | TGI (SR leukemia): > 71.1 µM | TGI (OVCAR-5 ovarian): > 100 µM | TGI (SK-MEL-2 melanoma): > 100 µM | TGI (LXFL 529 NSCLC): > 100 µM | TGI (A498 renal): > 100 µM | TGI (OVCAR-4 ovarian): > 100 µM | TGI (K-562 leukemia): > 65.6 µM | TGI (HOP-62 NSCLC): > 100 µM | TGI (DMS 273 small cell lung): > 75.4 µM | TGI (M14 melanoma): 59.8 µM | TGI (HCT-15 colon): > 100 µM | TGI (SW-620 colon): > 100 µM | TGI (SF-539 CNS): > 100 µM | TGI (SF-295 CNS): > 100 µM | TGI (KM20L2 colon): > 100 µM | TGI (RPMI-8226 leukemia): > 100 µM | TGI (HCC-2998 colon): > 100 µM | TGI (UACC-62 melanoma): > 100 µM | TGI (NCI-H460 lung): > 100 µM | TGI (SNB-75 CNS): > 100 µM | TGI (HOP-18 NSCLC): > 100 µM | TGI (OVCAR-3 ovarian): > 100 µM | TGI (SNB-19 CNS): > 100 µM | TGI (SN12C renal): 99.2 µM | TGI (EKVX NSCLC): > 100 µM | TGI (DLD-1 colon): > 100 µM | TGI (COLO 205 colon): 56.2 µM | TGI (HT29 colon): > 100 µM | TGI (NCI-H23 lung): > 100 µM | TGI (ACHN renal): > 100 µM | TGI (SK-OV-3 ovarian): > 100 µM | TGI (SK-MEL-5 melanoma): > 100 µM | TGI (TK-10 renal): > 100 µM | TGI (LOX IMVI melanoma): > 100 µM

COc1cc2c(c(OC)c1)C(=O)C(=O)C(CC1(C)OCCCO1)=C2
TGI (RXF-631 renal): 36.6 µM | TGI (786-0 renal): 22 µM | TGI (MALME-3M melanoma): 20.4 µM | TGI (KM12 colon): 29.7 µM | TGI (OVCAR-8 ovarian): 28.6 µM | TGI (U251 CNS): 28.7 µM | TGI (NCI-H226 lung): 19.6 µM | TGI (HOP-92 NSCLC): 4.41 µM | TGI (UO-31 renal): 25.6 µM | TGI (RXF 393 renal): 8.71 µM | TGI (SK-MEL-28 melanoma): 28.6 µM | TGI (IGROV1 ovarian): 27.8 µM | TGI (A549 NSCLC): 28.3 µM | TGI (MOLT-4 leukemia): > 29.9 µM | TGI (NCI-H522 lung): 2.7 µM | TGI (XF 498 CNS): 25.6 µM | TGI (M19-MEL melanoma): 6.18 µM | TGI (CCRF-CEM leukemia): 4.72 µM | TGI (SNB-78 CNS): 26 µM | TGI (SF-268 CNS): 30.1 µM | TGI (DMS 114 small cell lung): 12.7 µM | TGI (HL-60(TB) leukemia): 4.28 µM | TGI (UACC-257 melanoma): 27.4 µM | TGI (HCT-116 colon): 10.3 µM | TGI (CAKI-1 renal): 13.1 µM | TGI (OVCAR-5 ovarian): 37.7 µM | TGI (SK-MEL-2 melanoma): 30.3 µM | TGI (LXFL 529 NSCLC): 14.6 µM | TGI (A498 renal): 31.3 µM | TGI (OVCAR-4 ovarian): 18.9 µM | TGI (K-562 leukemia): 6.7 µM | TGI (HOP-62 NSCLC): 32.6 µM | TGI (DMS 273 small cell lung): 28.4 µM | TGI (M14 melanoma): 24.3 µM | TGI (HCT-15 colon): 17 µM | TGI (SW-620 colon): 3.23 µM | TGI (SF-539 CNS): 32 µM | TGI (SF-295 CNS): 27.1 µM | TGI (KM20L2 colon): 31.9 µM | TGI (RPMI-8226 leukemia): > 100 µM | TGI (HCC-2998 colon): 30.1 µM | TGI (UACC-62 melanoma): 20.2 µM | TGI (NCI-H460 lung): 26.6 µM | TGI (SNB-75 CNS): 33.9 µM | TGI (HOP-18 NSCLC): 24.5 µM | TGI (OVCAR-3 ovarian): 10.5 µM | TGI (SNB-19 CNS): > 53.2 µM | TGI (SN12C renal): 26.8 µM | TGI (EKVX NSCLC): 29.6 µM | TGI (DLD-1 colon): 8.45 µM | TGI (COLO 205 colon): 9.58 µM | TGI (HT29 colon): 35 µM | TGI (NCI-H23 lung): 24.3 µM | TGI (ACHN renal): 17.9 µM | TGI (SK-OV-3 ovarian): 30.2 µM | TGI (SK-MEL-5 melanoma): 18.1 µM | TGI (TK-10 renal): 17.2 µM | TGI (LOX IMVI melanoma): 12.9 µM
